These results are taken from patent US20160263109A1, “P13K INHIBITOR FOR TREATMENT OF RESPIRATORY DISEASE” (GLAXOSMITHKLINE INTELLECTUAL PROPERTY DEVELOPMENT LIMITED, priority 2013, published 2016).

The subject of one test is lung gene expression. Kind of test: Affymetrix GeneChip lung gene expression in S. Pneumoniae-infected mice. It is filed as in vivo. The settings on record: lungs of S. Pneumoniae-infected mice at various timepoints after infection; genes with minimum 1.5 fold-change, p<0.05; n=6. The procedure: (§1) Germ-free C57BL/6 male and female mice aged 10-12 weeks were intranasally administered with 0.2% Tween-80/saline vehicle or 0.2 mg/kg micronized 6-(1H-indol-4-yl)-4-(5-{[4-(1-methylethyl)-1-piperazinyl]methyl}-1,3-oxazol-2-yl)-1H-indazole hydrochloride in the same vehicle. Compound dosing was carried out twice daily for eleven days under anaesthesia using 3% isoflurane for induction and 2% isoflurane for maintenance. At the start of day two, and one hour after administering 6-(1H-indol-4-yl)-4-(5-{[4-(1-methylethyl)-1-piperazinyl]methyl}-1,3-oxazol-2-yl)-1H-indazole hydrochloride or vehicle, mice were anaesthetized with isoflurane as above and infected intranasally with 1×10^7 CFU of S. pneumoniae strain TIGR4. S. Pneumoniae was obtained and prepared as described previously (see, for example, Infect. Immun. December 2011; 79(12): 4965-4976) and given in an inoculum of 50 μl PBS per mouse. Mice were monitored three times daily and assessed using a defined mortality-endpoint, where mice displaying three or more of the limiting clinical signs stated in Home Office Project Licence PPL 70/7661 were culled.
Each band corresponds to a single probe and intensity signifies fold change, as indicated in the legend.

The test system of test [1] is S. pneumoniae strain TIGR4. Description: Streptococcus pneumoniae infection in mice, survival by defined mortality-endpoint. The settings on record: C57BL/6 mice, 0.2 mg/kg intranasal twice daily for eleven days, infected intranasally with 1×10^7 CFU S. pneumoniae TIGR4; n=60; Mantel-Cox **p<0.005. It is filed as in vivo. As for the experimental part:
as §1

SMILES strings stand for the structures. Structures can show the parent of a compound that is named as a salt.

As for `CC(C)N1CCN(Cc2cnc(-c3cc(-c4cccc5[nH]ccc45)cc4[nH]ncc34)o2)CC1` [6-(1H-indol-4-yl)-4-(5-{[4-(1-methylethyl)-1-piperazinyl]methyl}-1,3-oxazol-2-yl)-1H-indazole hydrochloride], in the test with lung gene expression, the “lung gene expression compared to vehicle controls” value is recorded as “altered lung gene expression”. The “defined mortality-endpoint (percentage survival) compared to vehicle controls” value in test [1] is “reduced a defined mortality-endpoint”.
